Assay results taken from patent US3969401A, “D-aminophenylacetic acid compounds and derivatives” (William H. Rorer, Inc., priority 1973, dated 1976).
Where a name gives a salt, the structure may show the parent alone.

Columns and labels:
carrageenan paw edema = experiment: Carrageenan Paw Edema (CPE); type: in vivo, male rats
Experimental: Of the substances used to induce local irritation, carrageenan was selected since most known nonsteroidal anti-inflammatory agents inhibit this inflammation.
Ten male rats per dose group (120-150 g.) were given one-half of the test material orally. Thirty minutes later, the remainder of the dose was given and 0.2 ml. of a 1% carrageenan solution was injected subdermally into the plantar surface of the hind paw. Each paw is marked as a consistent anatomical site, then immersed in a mercury bath to that point. The mercury bath is connected to a pressure transducer and the volume of displacement is read directly on a recorder. Three hours after drug administration, the hind paw volume is measured again. The increased volume is an index of edema. Treated groups are compared to a placebo-treated group to calculate the percent inhibition of edema.
(§1) The test results are given in the following Table wherein the following legends were employed: PQW phenylquinone writhing RSA Randall-Selitto Analgesia CPE Carrageenan Paw Edema UVS Ultra-Violet Erythema FPG Filter Paper Granuloma AP Anti-Pyresis P.T. Pain Threshold No. P/T Number Positive/Total % ↑ Percentage Increase % ↓ Percentage Inhibition

polyarthritis (adjuvant) = experiment: Polyarthritis in rats (adjuvant); type: in vivo
Experimental: Twelve rats per dose group were treated (b.i.d.) starting the day before injection of adjuvant. Paw volumes were measured for both hind paws on several days during and following drug treatment. Drug was given for a period of 15 days. The paw volume was compared to an untreated control group to determine volume increase. Drug action was calculated as the percent decrease in paw volume (inflammation) as compared to an adjuvant-treated control. Gross signs of inflammation were scored on a weekly basis and drug action calculated as a decrese in total score. Body weights were recorded at intervals.

ultra-violet erythema = experiment: Ultra-violet Erythema in Guinea Pigs (UVE); type: in vivo, guinea pig
From the text: Erythema associated with inflammation was used in the assay. Restricted areas of a guinea pig were exposed to a controlled ultra-violet light and after two hours the exposed areas were graded for the extent of erythema.
as §1

Brewer's yeast fever = experiment: Anti-Pyretic Assay (AP); type: in vivo, rats; details: positive = rectal temperature decreases by 1° C. or more
Experimental: Brewer's yeast was injected subcutaneously in rats and rectal temperatures were obtained at the end of five hours. Those rats (10 per group) having a significant fever were given test compounds and rectal temperatures were measured at hourly intervals for 2 to 3 hours. (A positive response occurs when rectal temperature decreases by 1° C. or more).
as §1

[1] = system: yeast-inflamed hind paw (pain threshold); experiment: Randall-Selitto Analgesia Test (RSA); type: in vivo, rat
Experimental: In accordance with the Randall-Selitto test for measuring the pain threshold, the pressure needed on a metal plunger to give a "pain reponse" in a rat when the plunger is placed in the yeast-inflamed hind paw of a rat is measured. Following measurement of control pain threshold, yeast was injected into the paw and the test compound was given orally. The pain threshold was measured at hourly intervals and compared to a placebo-treated control group.
as §1

Acute Toxicity = details: mouse, in vivo; male mice, oral single dose, observed nine days
Experimental: Food and water were delivered ad lib. The drug to be tested was prepared as a water suspension using one drop of "Tween 80" per 10 ml. and administered orally as a single dose (10 ml./kg.). The control group received the vehicle only (10 ml./kg.). The lethal dose (LD50) which is the dose of drug required to kill 50 percent of the animals tested, was determined by the Litchfield and Wilcoxon method.

phenylquinone writhing = experiment: Phenylquinone analgesia (phenylquinone writhing, PQW); type: in vivo, mice
Experimental: Mice were pre-treated orally with test compound and then given 1.25 mg./kg. of phenylquinone i.p to produce a series of "writhes" (severe intestinal contractions). The number of writhes was recorded. The percent decrease was calculated from the incidence of writhes in a placebo-treated control group.
as §1

filter paper granuloma = experiment: Filter Paper Granuloma (FPG); type: in vivo, rat
Experimental: This assay was used to evaluate anti-inflammatory agents and to determine the lowest dose which produces significant inhibition of granuloma growth. This assay has the advantage of being semi-acute (4 to 7 days). The usual end point involves obtaining the wet weight as well as the dry weight of the granuloma.
Small discs of filter paper saturated with carrageenan were placed subcutaneously in each rat on the first day of the study. Test compound was administered orally on a b.i.d. basis on Day 1 to Day 4. On Day 5, a single dose was given in the morning and the animals were sacrificed in the afternoon. Both filter paper discs were removed and trimmed of extraneous tissue and then weighed. After drying in an oven over the weekend, the dry weight was obtained. Activity was determined by the difference in granuloma weight between a placebo-treated control group and the drug-treated groups.
as §1

gastrointestinal tract = experiment: Gastrointestinal tolerance; type: in vivo; details: compared with the free acids

Compound: O=C(O)C(S)c1ccc(C2CCCCC2)c(Cl)c1 (stereo not drawn) [Compound 528A, Diethylammonium salt of m-chloro-p-cyclohexyl-α-mercaptophenylacetic acid]
- CPE % inhibition of edema (carrageenan paw edema; 100 mg/kg P.O): 52.0%
- Polyarthritis % av. inhibition, injected hind-paw (polyarthritis (adjuvant); 100 mg./kg./day P.O): 52.8%
- Polyarthritis % av. inhibition, noninjected hind-paw (polyarthritis (adjuvant); 100 mg./kg./day P.O): 35.6%
- Polyarthritis % av. inhibition, secondary lesions (polyarthritis (adjuvant); 100 mg./kg./day P.O): 34.0%
- UVE No. P/T (Number Positive/Total) (ultra-violet erythema; 5 mg/kg P.O): 5/8
- UVE No. P/T (Number Positive/Total) (ultra-violet erythema; 10 mg/kg P.O): 5/8
- UVE No. P/T (Number Positive/Total) (ultra-violet erythema; 25 mg/kg P.O): 7/8
- ED50 (ultra-violet erythema; Cavia porcellus, po, P.O): 10.5 mg/kg

Compound: O=C1NC(=O)C(c2ccc(C3CCCCC3)c(Cl)c2)S1 (centres unmarked) [Compound 529, 5-(m-Chloro-p-cyclohexylphenyl)-2,4-dioxothiazolidine]
- CPE % inhibition of edema (carrageenan paw edema; 50 mg/kg P.O): 17.4%
- CPE % inhibition of edema (carrageenan paw edema; 100 mg/kg P.O): 30%
- Polyarthritis % av. inhibition, injected hind-paw (polyarthritis (adjuvant); 100 mg./kg./day P.O): 42.0%
- Polyarthritis % av. inhibition, noninjected hind-paw (polyarthritis (adjuvant); 100 mg./kg./day P.O): 17.3%
- Polyarthritis % av. inhibition, secondary lesions (polyarthritis (adjuvant); 100 mg./kg./day P.O): 21.0%
- AP No. P/T (Number Positive/Total) (Brewer's yeast fever; 100 mg/kg P.O): 1/8

Compound: N=C1NC(=O)C(c2ccc(C3CCCCC3)c(Cl)c2)S1 (centres unmarked) [Compound 530, 5-(m-Chloro-p-cyclohexylphenyl)-2-imino-4-oxothiazolidine]
- RSA % increase of pain threshold (PT) ([1]; 100 mg/kg P.O): 51.4%
- Polyarthritis % av. inhibition, injected hind-paw (polyarthritis (adjuvant); 100 mg./kg./day P.O): 38.1%
- Polyarthritis % av. inhibition, noninjected hind-paw (polyarthritis (adjuvant); 100 mg./kg./day P.O): 44.7%
- Polyarthritis % av. inhibition, secondary lesions (polyarthritis (adjuvant); 100 mg./kg./day P.O): 17.3%

Compound: O=C(O)C(SSC(C(=O)O)c1ccc(C2CCCCC2)c(Cl)c1)c1ccc(C2CCCCC2)c(Cl)c1 (stereo not drawn) [Compound 531A, Diethylammonium salt of α,α'-di-(m-chloro-p-cyclohexylphenyl)-α',α'-dithiodiacetic acid]
- RSA % increase of pain threshold (PT) ([1]; 50 mg/kg P.O): 32%
- RSA % increase of pain threshold (PT) ([1]; 100 mg/kg P.O): 28%
- RSA % increase of pain threshold (PT) ([1]; 200 mg/kg P.O): 51%
- CPE % inhibition of edema (carrageenan paw edema; 100 mg/kg P.O): 19.9%
- Polyarthritis % av. inhibition, injected hind-paw (polyarthritis (adjuvant); 100 mg./kg./day P.O): 34.0%
- Polyarthritis % av. inhibition, noninjected hind-paw (polyarthritis (adjuvant); 100 mg./kg./day P.O): 44.7%
- Polyarthritis % av. inhibition, secondary lesions (polyarthritis (adjuvant); 100 mg./kg./day P.O): 30.3%
- Polyarthritis % av. inhibition, injected hind-paw (polyarthritis (adjuvant); 200 mg./kg./day P.O): 35.6%
- Polyarthritis % av. inhibition, noninjected hind-paw (polyarthritis (adjuvant); 200 mg./kg./day P.O): 43.8%
- Polyarthritis % av. inhibition, secondary lesions (polyarthritis (adjuvant); 200 mg./kg./day P.O): 43.6%
- LD50 at 216 h (Acute Toxicity): > 2000 mg/kg
- AP No. P/T (Number Positive/Total) (Brewer's yeast fever; 50 mg/kg P.O): 1/8
- AP No. P/T (Number Positive/Total) (Brewer's yeast fever; 100 mg/kg P.O): 1/8
- AP No. P/T (Number Positive/Total) (Brewer's yeast fever; 200 mg/kg P.O): 6/8

Compound: O=C(O)C(Cl)c1ccc(C2CCCCC2)c(Cl)c1 (stereo not drawn) [Compound 539A, Sodium salt of α,m-dichloro-p-cyclohexylphenylacetic acid]
- RSA % increase of pain threshold (PT) ([1]; 25 mg/kg P.O): 41.8%
- RSA % increase of pain threshold (PT) ([1]; 50 mg/kg P.O): 49.3%
- RSA % increase of pain threshold (PT) ([1]; 100 mg/kg P.O): 77.6%
- CPE % inhibition of edema (carrageenan paw edema; 1 mg/kg P.O): 10%
- CPE % inhibition of edema (carrageenan paw edema; 2 mg/kg P.O): 30.3%
- CPE % inhibition of edema (carrageenan paw edema; 3.125 mg/kg P.O): 34.6%
- CPE % inhibition of edema (carrageenan paw edema; 5 mg/kg P.O): 29.5%
- CPE % inhibition of edema (carrageenan paw edema; 6.25 mg/kg P.O): 42.0%
- CPE % inhibition of edema (carrageenan paw edema; 12.5 mg/kg P.O): 47.2%
- CPE % inhibition of edema (carrageenan paw edema; 25 mg/kg P.O): 43.0%
- CPE % inhibition of edema (carrageenan paw edema; 50 mg/kg P.O): 52.0%
- CPE % inhibition of edema (carrageenan paw edema; 100 mg/kg P.O): 64.0%
- Polyarthritis % av. inhibition, injected hind-paw (polyarthritis (adjuvant); 10 mg./kg./day P.O): 41.8%
- Polyarthritis % av. inhibition, noninjected hind-paw (polyarthritis (adjuvant); 10 mg./kg./day P.O): 14.1%
- Polyarthritis % av. inhibition, secondary lesions (polyarthritis (adjuvant); 10 mg./kg./day P.O): 28.2%
- Polyarthritis % av. inhibition, injected hind-paw (polyarthritis (adjuvant); 25 mg./kg./day P.O): 50.2%
- Polyarthritis % av. inhibition, noninjected hind-paw (polyarthritis (adjuvant); 25 mg./kg./day P.O): 12.1%
- Polyarthritis % av. inhibition, secondary lesions (polyarthritis (adjuvant); 25 mg./kg./day P.O): 44.0%
- Polyarthritis % av. inhibition, injected hind-paw (polyarthritis (adjuvant); 50 mg./kg./day P.O): 45%
- Polyarthritis % av. inhibition, noninjected hind-paw (polyarthritis (adjuvant); 50 mg./kg./day P.O): 59.6%
- Polyarthritis % av. inhibition, secondary lesions (polyarthritis (adjuvant); 50 mg./kg./day P.O): 39.3%
- Polyarthritis % av. inhibition, injected hind-paw (polyarthritis (adjuvant); 100 mg./kg./day P.O): 59.1%
- Polyarthritis % av. inhibition, noninjected hind-paw (polyarthritis (adjuvant); 100 mg./kg./day P.O): 51.2%
- Polyarthritis % av. inhibition, secondary lesions (polyarthritis (adjuvant); 100 mg./kg./day P.O): 30.1%
- PQW % inhibition (decrease in writhes) (phenylquinone writhing; 2 mg/kg P.O): 13.1%
- PQW % inhibition (decrease in writhes) (phenylquinone writhing; 5 mg/kg P.O): 13.1%
- PQW % inhibition (decrease in writhes) (phenylquinone writhing; 10 mg/kg P.O): 54.6%
- PQW % inhibition (decrease in writhes) (phenylquinone writhing; 20 mg/kg P.O): 84.5%
- PQW % inhibition (decrease in writhes) (phenylquinone writhing; 30 mg/kg P.O): 96.6%
- ED50 (phenylquinone writhing; Mus musculus, po, P.O): 9.6 mg/kg
- EPG (Filter Paper Granuloma) % inhibition, dry weight (filter paper granuloma; 25 mg./kg./day P.O): 41.1%
- EPG (Filter Paper Granuloma) % inhibition, wet weight (filter paper granuloma; 25 mg./kg./day P.O): 31.7%
- EPG (Filter Paper Granuloma) % inhibition, dry weight (filter paper granuloma; 50 mg./kg./day P.O): 38.8%
- EPG (Filter Paper Granuloma) % inhibition, wet weight (filter paper granuloma; 50 mg./kg./day P.O): 43.9%
- LD50 at 216 h (Acute Toxicity): 430 mg/kg
- AP No. P/T (Number Positive/Total) (Brewer's yeast fever; 6.25 mg/kg P.O): 0/8
- AP No. P/T (Number Positive/Total) (Brewer's yeast fever; 12.5 mg/kg P.O): 3/8
- AP No. P/T (Number Positive/Total) (Brewer's yeast fever; 25 mg/kg P.O): 2/8
- AP No. P/T (Number Positive/Total) (Brewer's yeast fever; 50 mg/kg P.O): 6/8
- AP No. P/T (Number Positive/Total) (Brewer's yeast fever; 100 mg/kg P.O): 8/8

Compound: CCOC(=O)C(Cl)c1ccc(C2CCCCC2)c(Cl)c1 (stereo not drawn) [Compound 541, α,m-Dichloro-p-cyclohexylphenylacetic acid ethyl ester]
- gastrointestinal tolerability (gastrointestinal tract): better tolerated and not as irritating on the gastrointestinal tract as the free acids
- CPE % inhibition of edema (carrageenan paw edema; 6.25 mg/kg P.O): 51.3%
- CPE % inhibition of edema (carrageenan paw edema; 12.5 mg/kg P.O): 38.8%
- CPE % inhibition of edema (carrageenan paw edema; 25 mg/kg P.O): 49.8%
- CPE % inhibition of edema (carrageenan paw edema; 50 mg/kg P.O): 52.2%
